Read-outs that look alike come from different tables or passages of the source.
Key:
[1] = cited from earlier work
168 GPCRs [2] = biological target: 168 GPCRs (Homo sapiens, UniProt P35408); assay: β-arrestin based GPCR screen (PathHunter / GPCRmax), antagonist mode
168 GPCRs [3] = biological target: 168 GPCRs (Homo sapiens, UniProt Q9GZQ6); assay: as above
168 GPCRs [4] = biological target: 168 GPCRs (Homo sapiens, UniProt P41231); assay: as above
168 GPCRs [5] = biological target: 168 GPCRs (Homo sapiens, UniProt P49019); assay: as above; conditions: GPR109B
Chain of 168 GPCRs (Homo sapiens, UniProt P49019) (P49019 whole entry): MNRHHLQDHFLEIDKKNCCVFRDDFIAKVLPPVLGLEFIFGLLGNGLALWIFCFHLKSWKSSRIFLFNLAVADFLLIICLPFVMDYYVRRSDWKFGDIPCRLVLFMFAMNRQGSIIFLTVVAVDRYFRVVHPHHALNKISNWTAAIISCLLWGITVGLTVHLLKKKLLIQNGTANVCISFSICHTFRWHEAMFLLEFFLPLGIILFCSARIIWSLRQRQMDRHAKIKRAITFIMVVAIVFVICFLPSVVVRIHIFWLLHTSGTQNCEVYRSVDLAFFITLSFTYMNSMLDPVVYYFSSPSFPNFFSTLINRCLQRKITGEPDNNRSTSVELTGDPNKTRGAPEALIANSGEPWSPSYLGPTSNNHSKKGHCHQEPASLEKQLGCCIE

168 GPCRs [6] = biological target: 168 GPCRs (Homo sapiens, UniProt P30874); assay: as above
Chain of 168 GPCRs (Homo sapiens, UniProt P30874) (P30874 whole entry): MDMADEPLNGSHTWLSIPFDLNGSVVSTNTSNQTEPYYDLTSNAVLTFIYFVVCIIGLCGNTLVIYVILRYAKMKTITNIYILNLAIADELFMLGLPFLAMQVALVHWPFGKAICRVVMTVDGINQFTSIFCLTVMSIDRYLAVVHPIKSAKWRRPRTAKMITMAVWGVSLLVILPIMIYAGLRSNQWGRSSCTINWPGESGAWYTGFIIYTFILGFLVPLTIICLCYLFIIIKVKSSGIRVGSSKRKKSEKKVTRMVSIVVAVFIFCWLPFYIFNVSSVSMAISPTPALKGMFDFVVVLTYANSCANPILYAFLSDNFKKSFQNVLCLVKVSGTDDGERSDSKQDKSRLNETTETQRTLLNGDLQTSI

168 GPCRs [7] = biological target: 168 GPCRs (Homo sapiens, UniProt P21728); assay: as above
Chain of 168 GPCRs (Homo sapiens, UniProt P21728) (P21728 whole entry): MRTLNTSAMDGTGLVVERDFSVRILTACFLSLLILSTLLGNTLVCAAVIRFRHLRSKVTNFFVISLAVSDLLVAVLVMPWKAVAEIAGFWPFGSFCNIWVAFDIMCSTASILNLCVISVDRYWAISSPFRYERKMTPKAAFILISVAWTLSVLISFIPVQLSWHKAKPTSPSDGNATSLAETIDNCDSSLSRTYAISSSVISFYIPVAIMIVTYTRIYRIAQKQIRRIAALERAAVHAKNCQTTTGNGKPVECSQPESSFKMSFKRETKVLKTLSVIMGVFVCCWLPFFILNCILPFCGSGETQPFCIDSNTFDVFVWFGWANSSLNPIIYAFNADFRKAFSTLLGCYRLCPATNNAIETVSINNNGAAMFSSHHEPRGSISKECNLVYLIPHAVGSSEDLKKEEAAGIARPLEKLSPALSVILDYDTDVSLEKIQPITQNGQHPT

168 GPCRs [8] = biological target: 168 GPCRs (Homo sapiens, UniProt P47900); assay: as above
168 GPCRs [9] = biological target: 168 GPCRs (Homo sapiens, UniProt P34998); assay: as above
Chain of 168 GPCRs (Homo sapiens, UniProt P34998) (P34998 24-415): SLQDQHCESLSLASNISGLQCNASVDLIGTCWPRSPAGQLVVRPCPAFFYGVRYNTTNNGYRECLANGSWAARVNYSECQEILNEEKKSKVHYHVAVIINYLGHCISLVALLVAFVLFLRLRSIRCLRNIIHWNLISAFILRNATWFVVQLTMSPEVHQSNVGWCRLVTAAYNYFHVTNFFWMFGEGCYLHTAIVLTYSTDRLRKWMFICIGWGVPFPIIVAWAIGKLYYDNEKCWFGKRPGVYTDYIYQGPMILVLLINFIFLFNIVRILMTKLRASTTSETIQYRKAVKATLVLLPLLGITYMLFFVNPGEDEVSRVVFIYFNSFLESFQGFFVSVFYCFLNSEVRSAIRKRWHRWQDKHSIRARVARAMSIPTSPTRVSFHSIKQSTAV

168 GPCRs [10] = biological target: 168 GPCRs (Homo sapiens, UniProt P07550); assay: as above; conditions: ADRB2, Antagonist
Chain of 168 GPCRs (Homo sapiens, UniProt P07550) (P07550 whole entry): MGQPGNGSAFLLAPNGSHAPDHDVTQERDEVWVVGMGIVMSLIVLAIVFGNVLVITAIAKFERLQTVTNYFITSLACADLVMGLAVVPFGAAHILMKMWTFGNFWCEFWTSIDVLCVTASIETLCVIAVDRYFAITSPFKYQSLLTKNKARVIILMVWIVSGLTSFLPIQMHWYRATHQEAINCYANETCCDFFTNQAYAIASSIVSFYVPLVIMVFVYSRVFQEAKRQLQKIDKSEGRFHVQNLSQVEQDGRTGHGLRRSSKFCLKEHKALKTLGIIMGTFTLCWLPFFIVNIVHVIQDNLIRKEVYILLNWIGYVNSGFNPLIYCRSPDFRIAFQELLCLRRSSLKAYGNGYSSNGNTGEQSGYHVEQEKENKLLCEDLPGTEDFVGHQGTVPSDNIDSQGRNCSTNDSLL

168 GPCRs [11] = biological target: 168 GPCRs (Homo sapiens, UniProt O43614); assay: as above
168 GPCRs [12] = biological target: 168 GPCRs (Homo sapiens, UniProt P30556); assay: as above; conditions: AGTR1, Antagonist
Chain of 168 GPCRs (Homo sapiens, UniProt P30556) (P30556 whole entry): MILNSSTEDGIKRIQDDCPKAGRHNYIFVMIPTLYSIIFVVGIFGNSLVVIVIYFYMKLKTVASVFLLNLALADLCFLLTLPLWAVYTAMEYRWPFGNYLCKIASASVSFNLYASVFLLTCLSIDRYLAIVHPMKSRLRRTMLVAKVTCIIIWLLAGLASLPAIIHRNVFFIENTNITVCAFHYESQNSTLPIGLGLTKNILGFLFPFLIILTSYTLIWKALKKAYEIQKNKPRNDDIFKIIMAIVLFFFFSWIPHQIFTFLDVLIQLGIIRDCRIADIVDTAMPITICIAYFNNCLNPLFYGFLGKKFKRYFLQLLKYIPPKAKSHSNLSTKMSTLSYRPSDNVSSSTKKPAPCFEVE

168 GPCRs [13] = biological target: 168 GPCRs (Homo sapiens, UniProt P25103); assay: as above
168 GPCRs [14] = biological target: 168 GPCRs (Homo sapiens, UniProt P51685); assay: as above; conditions: CCR8, Antagonist
Chain of 168 GPCRs (Homo sapiens, UniProt P51685) (P51685 whole entry): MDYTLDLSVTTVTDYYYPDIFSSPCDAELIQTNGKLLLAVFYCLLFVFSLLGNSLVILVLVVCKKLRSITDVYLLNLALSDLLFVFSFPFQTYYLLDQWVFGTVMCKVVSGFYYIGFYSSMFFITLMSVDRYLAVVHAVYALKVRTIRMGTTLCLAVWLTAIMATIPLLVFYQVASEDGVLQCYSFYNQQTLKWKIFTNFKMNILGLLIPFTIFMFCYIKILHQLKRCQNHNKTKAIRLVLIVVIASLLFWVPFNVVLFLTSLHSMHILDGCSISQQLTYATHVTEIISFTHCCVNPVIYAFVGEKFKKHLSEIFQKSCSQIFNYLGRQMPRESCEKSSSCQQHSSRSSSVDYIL

168 GPCRs [15] = biological target: T1, 168 GPCRs (Homo sapiens, UniProt P32248); assay: as above; conditions: CCR7, Antagonist
T1 sequence (P32248 25-378): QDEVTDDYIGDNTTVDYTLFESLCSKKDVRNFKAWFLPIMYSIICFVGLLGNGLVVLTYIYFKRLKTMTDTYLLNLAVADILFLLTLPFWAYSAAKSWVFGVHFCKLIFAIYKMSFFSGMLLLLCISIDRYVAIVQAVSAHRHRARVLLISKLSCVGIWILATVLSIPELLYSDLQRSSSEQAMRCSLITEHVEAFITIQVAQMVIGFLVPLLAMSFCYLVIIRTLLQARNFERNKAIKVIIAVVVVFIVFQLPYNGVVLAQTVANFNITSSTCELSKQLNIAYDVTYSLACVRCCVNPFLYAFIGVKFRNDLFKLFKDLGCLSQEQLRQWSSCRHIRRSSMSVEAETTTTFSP

168 GPCRs [16] = biological target: 168 GPCRs (Homo sapiens, UniProt P14416); assay: as above; conditions: DRD2L
Chain of 168 GPCRs (Homo sapiens, UniProt P14416) (P14416 whole entry): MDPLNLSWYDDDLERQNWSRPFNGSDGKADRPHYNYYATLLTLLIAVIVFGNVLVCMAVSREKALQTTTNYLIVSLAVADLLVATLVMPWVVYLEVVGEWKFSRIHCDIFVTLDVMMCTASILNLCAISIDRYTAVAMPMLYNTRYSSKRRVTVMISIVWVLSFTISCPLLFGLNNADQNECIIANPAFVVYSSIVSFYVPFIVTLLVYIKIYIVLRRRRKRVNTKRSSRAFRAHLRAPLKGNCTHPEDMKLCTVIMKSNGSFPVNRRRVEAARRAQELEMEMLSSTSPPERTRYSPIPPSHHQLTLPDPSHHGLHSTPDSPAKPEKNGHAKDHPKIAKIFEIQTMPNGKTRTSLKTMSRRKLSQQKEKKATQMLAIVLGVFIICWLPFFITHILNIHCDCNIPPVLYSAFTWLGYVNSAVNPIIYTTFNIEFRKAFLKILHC

168 GPCRs [17] = biological target: 168 GPCRs (Homo sapiens, UniProt P30411); assay: as above; conditions: BDKRB2, Antagonist
Chain of 168 GPCRs (Homo sapiens, UniProt P30411) (P30411 whole entry): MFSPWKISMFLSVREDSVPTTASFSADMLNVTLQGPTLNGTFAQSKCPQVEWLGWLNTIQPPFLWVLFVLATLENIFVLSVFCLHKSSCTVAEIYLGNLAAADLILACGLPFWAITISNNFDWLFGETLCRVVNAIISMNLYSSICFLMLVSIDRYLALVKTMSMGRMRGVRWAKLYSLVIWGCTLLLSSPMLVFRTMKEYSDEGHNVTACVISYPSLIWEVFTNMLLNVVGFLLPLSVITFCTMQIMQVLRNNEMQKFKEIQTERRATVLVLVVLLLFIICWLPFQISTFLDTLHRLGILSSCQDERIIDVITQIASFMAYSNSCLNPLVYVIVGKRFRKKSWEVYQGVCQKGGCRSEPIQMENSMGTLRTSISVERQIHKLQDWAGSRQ

168 GPCRs [18] = biological target: 168 GPCRs (Homo sapiens, UniProt Q16602); assay: as above; conditions: Antagonist
Chain of 168 GPCRs (Homo sapiens, UniProt Q16602) (Q16602 23-461): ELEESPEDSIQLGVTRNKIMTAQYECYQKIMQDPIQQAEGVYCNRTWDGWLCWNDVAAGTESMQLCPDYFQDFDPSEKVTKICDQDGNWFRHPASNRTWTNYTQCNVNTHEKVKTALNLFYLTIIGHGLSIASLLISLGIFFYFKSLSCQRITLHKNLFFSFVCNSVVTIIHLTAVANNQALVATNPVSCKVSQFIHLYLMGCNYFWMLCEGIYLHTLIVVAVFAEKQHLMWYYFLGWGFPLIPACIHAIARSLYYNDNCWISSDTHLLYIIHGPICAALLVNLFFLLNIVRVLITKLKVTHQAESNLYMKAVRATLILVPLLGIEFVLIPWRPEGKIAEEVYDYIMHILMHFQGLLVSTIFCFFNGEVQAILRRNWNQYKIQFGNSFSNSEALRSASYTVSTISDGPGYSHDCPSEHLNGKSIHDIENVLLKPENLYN

168 GPCRs [19] = biological target: 168 GPCRs (Homo sapiens, UniProt P46092); assay: as above; conditions: CCR10, Antagonist
[20] = across oral doses of 50 mg to 200 mg

Chain of 168 GPCRs (Homo sapiens, UniProt Q9GZQ6) (Q9GZQ6 whole entry): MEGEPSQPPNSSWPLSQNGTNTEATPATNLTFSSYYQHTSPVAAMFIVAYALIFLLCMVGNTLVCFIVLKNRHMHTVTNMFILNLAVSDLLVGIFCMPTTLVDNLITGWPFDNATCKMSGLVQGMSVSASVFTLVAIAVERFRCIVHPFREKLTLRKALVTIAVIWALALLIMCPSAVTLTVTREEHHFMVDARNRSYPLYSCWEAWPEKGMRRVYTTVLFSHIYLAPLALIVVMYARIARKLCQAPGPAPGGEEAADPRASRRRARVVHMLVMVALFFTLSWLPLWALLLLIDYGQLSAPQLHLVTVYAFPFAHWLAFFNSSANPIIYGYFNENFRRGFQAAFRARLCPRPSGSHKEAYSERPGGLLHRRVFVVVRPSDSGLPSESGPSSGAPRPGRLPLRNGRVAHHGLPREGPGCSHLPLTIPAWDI
Chain of 168 GPCRs (Homo sapiens, UniProt P41231) (P41231 whole entry): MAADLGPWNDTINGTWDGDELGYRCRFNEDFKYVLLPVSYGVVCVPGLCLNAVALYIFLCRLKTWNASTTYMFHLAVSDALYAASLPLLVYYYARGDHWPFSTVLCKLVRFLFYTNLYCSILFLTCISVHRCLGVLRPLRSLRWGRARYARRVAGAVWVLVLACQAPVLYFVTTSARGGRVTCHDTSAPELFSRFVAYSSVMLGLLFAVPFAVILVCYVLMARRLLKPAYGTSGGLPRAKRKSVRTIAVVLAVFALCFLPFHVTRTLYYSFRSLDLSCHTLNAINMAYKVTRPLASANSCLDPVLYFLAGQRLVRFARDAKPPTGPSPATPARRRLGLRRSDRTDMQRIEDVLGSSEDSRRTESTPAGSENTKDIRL

CNC(C)C(=O)c1ccc2c(c1)OCO2 (stereo not shown) [methylone, 3,4-methylenedioxy-N-methylcathinone]
half-life [1, 20]: 6 to 7 h | time to reach maximum concentrations (Tmax) [1, 20]: 1 to 2 h | AUC10 hr, geometric mean ([1]; oral 50 mg, N = 3): 725 ng·h/mL | Tmax, median ([1]; oral 50 mg, N = 3): 1.5 h | Cmax, geometric mean ([1]; oral 100 mg, N = 6): 283.9 ng/mL | Half-life, geometric mean ([1]; oral 100 mg, N = 6): 6.0 h | Tmax, median ([1]; oral 100 mg, N = 6): 2.5 h | AUC24 hr, geometric mean ([1]; oral 150 mg, N = 5): 3165 ng·h/mL | AUCinf, geometric mean ([1]; oral 150 mg, N = 5): 3509 ng·h/mL | Tmax, median ([1]; oral 150 mg, N = 5): 2 h | Half-life, geometric mean ([1]; oral 200 mg, N = 7): 6.5 h | Tmax, median ([1]; oral 200 mg, N = 7): 2 h | activity at 10 µM (168 GPCRs [2]; PTGER4, Antagonist mode, 10 uM): 4.3% | activity at 1 µM (168 GPCRs [2]; PTGER4, Antagonist, 1 uM): 10.1% | activity at 10 µM (168 GPCRs [3]; NPFFR1, Antagonist mode, 10 uM): 27.1% | activity at 1 µM (168 GPCRs [3]; NPFFR1, Antagonist, 1 uM): 32% | activity at 10 µM (168 GPCRs [4]; P2RY2, Antagonist mode, 10 uM): 1.8% | activity at 1 µM (168 GPCRs [4]; P2RY2, Antagonist, 1 uM): 5.4% | activity at 10 µM (168 GPCRs [5]; Antagonist mode, 10 uM): -20.2% | activity at 1 µM (168 GPCRs [5]; Antagonist, 1 uM): -16.5% | activity at 10 µM (168 GPCRs [6]; SSTR2, Antagonist mode, 10 uM): -4.2% | activity at 1 µM (168 GPCRs [6]; SSTR2, Antagonist, 1 uM): -0.4% | activity at 10 µM (168 GPCRs [7]; DRD1, Antagonist mode, 10 uM): 7.8% | activity at 1 µM (168 GPCRs [7]; DRD1, Antagonist, 1 uM): 6% | activity at 10 µM (168 GPCRs [8]; P2RY1, Antagonist mode, 10 uM): 14.9% | activity at 1 µM (168 GPCRs [8]; P2RY1, Antagonist, 1 uM): 14.5% | activity at 10 µM (168 GPCRs [9]; CRHR1, Antagonist mode, 10 uM): 0.6% | activity at 1 µM (168 GPCRs [9]; CRHR1, Antagonist, 1 uM): 1.3% | activity at 1 µM (168 GPCRs [10]; 1 uM): 18.1% | activity at 10 µM (168 GPCRs [10]; 10 uM): 20.4% | activity at 10 µM (168 GPCRs [11]; HCRTR2, Antagonist mode, 10 uM): 2.4% | activity at 1 µM (168 GPCRs [11]; HCRTR2, Antagonist, 1 uM): 6.4% | activity at 1 µM (168 GPCRs [12]; 1 uM): 3.3% | activity at 10 µM (168 GPCRs [12]; 10 uM): -1.4% | activity at 10 µM (168 GPCRs [13]; TACR1, Antagonist mode, 10 uM): 8.9% | activity at 1 µM (168 GPCRs [13]; TACR1, Antagonist, 1 uM): 15.2% | activity at 1 µM (168 GPCRs [14]; 1 uM): 4.7% | activity at 10 µM (168 GPCRs [14]; 10 uM): -0.3% | activity at 1 µM (168 GPCRs [15]; 1 uM): -8.3% | activity at 10 µM (168 GPCRs [15]; 10 uM): -3.4% | activity at 10 µM (168 GPCRs [16]; Antagonist mode, 10 uM): 0.1% | activity at 1 µM (168 GPCRs [16]; Antagonist, 1 uM): 1.1% | activity at 1 µM (168 GPCRs [17]; 1 uM): 7.3% | activity at 10 µM (168 GPCRs [17]; 10 uM): -2.6% | activity at 1 µM (168 GPCRs [18]; CALCRL-RAMP1): 4.7% | activity at 10 µM (168 GPCRs [18]; CALCRL-RAMP1): 7% | activity at 1 µM (168 GPCRs [18]; CALCRL-RAMP2): 19.1% | activity at 10 µM (168 GPCRs [18]; CALCRL-RAMP2): 7% | activity at 1 µM (168 GPCRs [18]; CALCRL-RAMP3): -18.5% | activity at 10 µM (168 GPCRs [18]; CALCRL-RAMP3): -7.5% | activity at 1 µM (168 GPCRs [19]; 1 uM): 5.4% | activity at 10 µM (168 GPCRs [19]; 10 uM): 2.6%

Reference: US12343326B2, “Psychoactive medicines and their use for treating psychiatric and neurological conditions and disorders” (Transcend Therapeutics, Inc., priority 2021, dated 2025)
